Measurements from patent US8192962B2, “Processes for detecting toxic substances” (Daikin Industries, Ltd., priority 2001, dated 2012).

Tested on: Detoxification protein genes
Test: DNA chip mRNA expression in yeast, detoxification protein genes (Table 8)
Assay type: cell-based, Saccharomyces cerevisiae S288C
In short: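 Measured as treated-to-untreated fluorescence ratio on a full-genome yeast DNA chip. Cells (S288C, YPD, 25° C.) were exposed in log phase for two hours to one chemical, dosed to curb growth without killing.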

Oc1cc(Cl)c(Cl)cc1Cl [(6), 2,4,5-trichlorophenol]
The level of expressed mRNA in the presence of chemical substance/The level of expressed mRNA in the absence of chemical substance (yeast gene YBL064C): 5.2
The level of expressed mRNA in the presence of chemical substance/The level of expressed mRNA in the absence of chemical substance (yeast gene YBR008C): 1.0
The level of expressed mRNA in the presence of chemical substance/The level of expressed mRNA in the absence of chemical substance (yeast gene YBR145W): 11.5
The level of expressed mRNA in the presence of chemical substance/The level of expressed mRNA in the absence of chemical substance (yeast gene YBR244W): 1.0
The level of expressed mRNA in the presence of chemical substance/The level of expressed mRNA in the absence of chemical substance (yeast gene YBR293W): 0.9
The level of expressed mRNA in the presence of chemical substance/The level of expressed mRNA in the absence of chemical substance (yeast gene YCL035C): 5.1
The level of expressed mRNA in the presence of chemical substance/The level of expressed mRNA in the absence of chemical substance (yeast gene YCR083W): 2.4
The level of expressed mRNA in the presence of chemical substance/The level of expressed mRNA in the absence of chemical substance (yeast gene YDL100C): 2.1
The level of expressed mRNA in the presence of chemical substance/The level of expressed mRNA in the absence of chemical substance (yeast gene YDL168W): 1.4
The level of expressed mRNA in the presence of chemical substance/The level of expressed mRNA in the absence of chemical substance (yeast gene YDR256C): 0.5
The level of expressed mRNA in the presence of chemical substance/The level of expressed mRNA in the absence of chemical substance (yeast gene YDR453C): 1.7
The level of expressed mRNA in the presence of chemical substance/The level of expressed mRNA in the absence of chemical substance (yeast gene YDR513W): 2.1
The level of expressed mRNA in the presence of chemical substance/The level of expressed mRNA in the absence of chemical substance (yeast gene YDR538W): 1.0
The level of expressed mRNA in the presence of chemical substance/The level of expressed mRNA in the absence of chemical substance (yeast gene YEL027W): 1.1
The level of expressed mRNA in the presence of chemical substance/The level of expressed mRNA in the absence of chemical substance (yeast gene YEL065W): 2.3
The level of expressed mRNA in the presence of chemical substance/The level of expressed mRNA in the absence of chemical substance (yeast gene YER185W): 1.2
The level of expressed mRNA in the presence of chemical substance/The level of expressed mRNA in the absence of chemical substance (yeast gene YFL050C): 0.9
The level of expressed mRNA in the presence of chemical substance/The level of expressed mRNA in the absence of chemical substance (yeast gene YGL013C): 2.3
The level of expressed mRNA in the presence of chemical substance/The level of expressed mRNA in the absence of chemical substance (yeast gene YGL254W): 0.7
The level of expressed mRNA in the presence of chemical substance/The level of expressed mRNA in the absence of chemical substance (yeast gene YGR088W): 1.3
The level of expressed mRNA in the presence of chemical substance/The level of expressed mRNA in the absence of chemical substance (yeast gene YGR138C): 0.8
The level of expressed mRNA in the presence of chemical substance/The level of expressed mRNA in the absence of chemical substance (yeast gene YGR197C): 0.5
The level of expressed mRNA in the presence of chemical substance/The level of expressed mRNA in the absence of chemical substance (yeast gene YGR209C): 1.9
The level of expressed mRNA in the presence of chemical substance/The level of expressed mRNA in the absence of chemical substance (yeast gene YGR224W): 0.8
The level of expressed mRNA in the presence of chemical substance/The level of expressed mRNA in the absence of chemical substance (yeast gene YHL040C): 7.3
The level of expressed mRNA in the presence of chemical substance/The level of expressed mRNA in the absence of chemical substance (yeast gene YHL047C): 8.4
The level of expressed mRNA in the presence of chemical substance/The level of expressed mRNA in the absence of chemical substance (yeast gene YHR008C): 1.0
The level of expressed mRNA in the presence of chemical substance/The level of expressed mRNA in the absence of chemical substance (yeast gene YHR048W): 0.8
The level of expressed mRNA in the presence of chemical substance/The level of expressed mRNA in the absence of chemical substance (yeast gene YHR053C): 1.3
The level of expressed mRNA in the presence of chemical substance/The level of expressed mRNA in the absence of chemical substance (yeast gene YHR055C): 1.6
The level of expressed mRNA in the presence of chemical substance/The level of expressed mRNA in the absence of chemical substance (yeast gene YIR002C): 2.2
The level of expressed mRNA in the presence of chemical substance/The level of expressed mRNA in the absence of chemical substance (yeast gene YIR038C): 2.5
The level of expressed mRNA in the presence of chemical substance/The level of expressed mRNA in the absence of chemical substance (yeast gene YJL101C): 1.0
The level of expressed mRNA in the presence of chemical substance/The level of expressed mRNA in the absence of chemical substance (yeast gene YJR104C): 1.4
The level of expressed mRNA in the presence of chemical substance/The level of expressed mRNA in the absence of chemical substance (yeast gene YKL026C): 1.8
The level of expressed mRNA in the presence of chemical substance/The level of expressed mRNA in the absence of chemical substance (yeast gene YKL064W): 1.5
The level of expressed mRNA in the presence of chemical substance/The level of expressed mRNA in the absence of chemical substance (yeast gene YKR066C): 0.9
The level of expressed mRNA in the presence of chemical substance/The level of expressed mRNA in the absence of chemical substance (yeast gene YKR105C): 1.2
The level of expressed mRNA in the presence of chemical substance/The level of expressed mRNA in the absence of chemical substance (yeast gene YKR106W): 1.6
The level of expressed mRNA in the presence of chemical substance/The level of expressed mRNA in the absence of chemical substance (yeast gene YLL028W): 1.7
The level of expressed mRNA in the presence of chemical substance/The level of expressed mRNA in the absence of chemical substance (yeast gene YLL057C): 1.0
The level of expressed mRNA in the presence of chemical substance/The level of expressed mRNA in the absence of chemical substance (yeast gene YLL060C): 1.4
The level of expressed mRNA in the presence of chemical substance/The level of expressed mRNA in the absence of chemical substance (yeast gene YLR043C): 1.4
The level of expressed mRNA in the presence of chemical substance/The level of expressed mRNA in the absence of chemical substance (yeast gene YLR046C): 3.8
The level of expressed mRNA in the presence of chemical substance/The level of expressed mRNA in the absence of chemical substance (yeast gene YML028W): 1.2
The level of expressed mRNA in the presence of chemical substance/The level of expressed mRNA in the absence of chemical substance (yeast gene YML116W): 0.9
The level of expressed mRNA in the presence of chemical substance/The level of expressed mRNA in the absence of chemical substance (yeast gene YMR015C): 1.3
The level of expressed mRNA in the presence of chemical substance/The level of expressed mRNA in the absence of chemical substance (yeast gene YMR038C): 1.0
The level of expressed mRNA in the presence of chemical substance/The level of expressed mRNA in the absence of chemical substance (yeast gene YNL239W): 1.8
The level of expressed mRNA in the presence of chemical substance/The level of expressed mRNA in the absence of chemical substance (yeast gene YNL241C): 0.9
The level of expressed mRNA in the presence of chemical substance/The level of expressed mRNA in the absence of chemical substance (yeast gene YNL259C): 3.9
The level of expressed mRNA in the presence of chemical substance/The level of expressed mRNA in the absence of chemical substance (yeast gene YOL158C): 2.0
The level of expressed mRNA in the presence of chemical substance/The level of expressed mRNA in the absence of chemical substance (yeast gene YOR031W): 0.9
The level of expressed mRNA in the presence of chemical substance/The level of expressed mRNA in the absence of chemical substance (yeast gene YOR153W): 7.4
The level of expressed mRNA in the presence of chemical substance/The level of expressed mRNA in the absence of chemical substance (yeast gene YOR247W): 0.2
The level of expressed mRNA in the presence of chemical substance/The level of expressed mRNA in the absence of chemical substance (yeast gene YOR251C): 0.9
The level of expressed mRNA in the presence of chemical substance/The level of expressed mRNA in the absence of chemical substance (yeast gene YOR273C): 0.4
The level of expressed mRNA in the presence of chemical substance/The level of expressed mRNA in the absence of chemical substance (yeast gene YPL163C): 0.6
The level of expressed mRNA in the presence of chemical substance/The level of expressed mRNA in the absence of chemical substance (yeast gene YPR200C): 0.8

CCCCC[C@H](O)CC(=O)CCc1ccc(O)c(OC)c1 [(13), gingerol]
The level of expressed mRNA in the presence of chemical substance/The level of expressed mRNA in the absence of chemical substance (yeast gene YBL064C): 4.1
The level of expressed mRNA in the presence of chemical substance/The level of expressed mRNA in the absence of chemical substance (yeast gene YBR244W): 0.4
The level of expressed mRNA in the presence of chemical substance/The level of expressed mRNA in the absence of chemical substance (yeast gene YBR293W): 3.0
The level of expressed mRNA in the presence of chemical substance/The level of expressed mRNA in the absence of chemical substance (yeast gene YDL168W): 1.3
The level of expressed mRNA in the presence of chemical substance/The level of expressed mRNA in the absence of chemical substance (yeast gene YDR256C): 1.1
The level of expressed mRNA in the presence of chemical substance/The level of expressed mRNA in the absence of chemical substance (yeast gene YDR453C): 1.4
The level of expressed mRNA in the presence of chemical substance/The level of expressed mRNA in the absence of chemical substance (yeast gene YDR538W): 0.7
The level of expressed mRNA in the presence of chemical substance/The level of expressed mRNA in the absence of chemical substance (yeast gene YEL027W): 0.7
The level of expressed mRNA in the presence of chemical substance/The level of expressed mRNA in the absence of chemical substance (yeast gene YER185W): 2.1
The level of expressed mRNA in the presence of chemical substance/The level of expressed mRNA in the absence of chemical substance (yeast gene YFL050C): 1.2
The level of expressed mRNA in the presence of chemical substance/The level of expressed mRNA in the absence of chemical substance (yeast gene YGR088W): 1.2
The level of expressed mRNA in the presence of chemical substance/The level of expressed mRNA in the absence of chemical substance (yeast gene YGR138C): 0.6
The level of expressed mRNA in the presence of chemical substance/The level of expressed mRNA in the absence of chemical substance (yeast gene YGR209C): 1.4
The level of expressed mRNA in the presence of chemical substance/The level of expressed mRNA in the absence of chemical substance (yeast gene YHR008C): 1.2
The level of expressed mRNA in the presence of chemical substance/The level of expressed mRNA in the absence of chemical substance (yeast gene YHR048W): 1.1
The level of expressed mRNA in the presence of chemical substance/The level of expressed mRNA in the absence of chemical substance (yeast gene YIR002C): 1.2
The level of expressed mRNA in the presence of chemical substance/The level of expressed mRNA in the absence of chemical substance (yeast gene YJL101C): 1.0
The level of expressed mRNA in the presence of chemical substance/The level of expressed mRNA in the absence of chemical substance (yeast gene YKL064W): 1.6
The level of expressed mRNA in the presence of chemical substance/The level of expressed mRNA in the absence of chemical substance (yeast gene YKR066C): 0.6
The level of expressed mRNA in the presence of chemical substance/The level of expressed mRNA in the absence of chemical substance (yeast gene YKR106W): 1.4
The level of expressed mRNA in the presence of chemical substance/The level of expressed mRNA in the absence of chemical substance (yeast gene YLL028W): 4.1
The level of expressed mRNA in the presence of chemical substance/The level of expressed mRNA in the absence of chemical substance (yeast gene YLL057C): 1.4
The level of expressed mRNA in the presence of chemical substance/The level of expressed mRNA in the absence of chemical substance (yeast gene YLR046C): 1.2
The level of expressed mRNA in the presence of chemical substance/The level of expressed mRNA in the absence of chemical substance (yeast gene YML028W): 1.6
The level of expressed mRNA in the presence of chemical substance/The level of expressed mRNA in the absence of chemical substance (yeast gene YMR015C): 0.4
The level of expressed mRNA in the presence of chemical substance/The level of expressed mRNA in the absence of chemical substance (yeast gene YMR038C): 1.7
The level of expressed mRNA in the presence of chemical substance/The level of expressed mRNA in the absence of chemical substance (yeast gene YNL239W): 3.6
The level of expressed mRNA in the presence of chemical substance/The level of expressed mRNA in the absence of chemical substance (yeast gene YNL241C): 4.9
The level of expressed mRNA in the presence of chemical substance/The level of expressed mRNA in the absence of chemical substance (yeast gene YNL259C): 1.1
The level of expressed mRNA in the presence of chemical substance/The level of expressed mRNA in the absence of chemical substance (yeast gene YOL158C): 1.4
The level of expressed mRNA in the presence of chemical substance/The level of expressed mRNA in the absence of chemical substance (yeast gene YOR251C): 1.0
The level of expressed mRNA in the presence of chemical substance/The level of expressed mRNA in the absence of chemical substance (yeast gene YOR273C): 2.6
The level of expressed mRNA in the presence of chemical substance/The level of expressed mRNA in the absence of chemical substance (yeast gene YPR200C): 0.6
